Test results reported in the supplement of paper PMC10307832.

Columns and labels:
Assay in all cases: relative viability (nuclei count vs DMSO), 5 days (fraction); higher = more cells survive
[1] = compound: CCCS(=O)(=O)Nc1ccc(F)c(C(=O)c2c[nH]c3ncc(-c4ccc(Cl)cc4)cc23)c1F [Vemurafenib] + COc1cc2c(Oc3ccc(NC(=O)C4(C(=O)Nc5ccc(F)cc5)CC4)cc3F)ccnc2cc1OCCCN1CCOCC1 [Foretinib] (partner 0.25 µM)
Procedure, shortened: (§1)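 Lung cancer cell lines, seeded in 1536-well plates, were treated the following day by pin tool with a single drug or with five library-drug doses (not always all listed) in √10 steps on top of a fixed anchor-drug dose. Cells were fixed and nuclei stained in one step after 5 days, and nuclei were counted. Relative viability is the nuclei count for treated wells divided by that for vehicle wells, reported as medians of duplicate plates.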

[2] = compound: CCCS(=O)(=O)Nc1ccc(F)c(C(=O)c2c[nH]c3ncc(-c4ccc(Cl)cc4)cc23)c1F [Vemurafenib] + CS(=O)(=O)N1CCN(Cc2cc3nc(-c4cccc5[nH]ncc45)nc(N4CCOCC4)c3s2)CC1 [Pictilisib] (partner 1 µM)
Procedure, shortened: as §1

[3] = compound: COc1cccc2cc(-c3nc([C@H]4CC[C@H](C(=O)O)CC4)n4ncnc(N)c34)[nH]c12 [OSI-027] + CC1(C)CCC(c2ccc(Cl)cc2)=C(CN2CCN(c3ccc(C(=O)NS(=O)(=O)c4ccc(N[C@H](CCN5CCOCC5)CSc5ccccc5)c(S(=O)(=O)C(F)(F)F)c4)cc3)CC2)C1 [Navitoclax] (partner 0.5 µM)
Procedure, shortened: as §1

[4] = compound: COc1cccc2cc(-c3nc([C@H]4CC[C@H](C(=O)O)CC4)n4ncnc(N)c34)[nH]c12 [OSI-027] + COc1cc2c(Oc3ccc(NC(=O)C4(C(=O)Nc5ccc(F)cc5)CC4)cc3F)ccnc2cc1OCCCN1CCOCC1 [Foretinib] (partner 0.25 µM)
Procedure, shortened: as §1

Cell Line | relative viability ([1]; first compound 0.03162 µM) | relative viability ([1]; first compound 0.1 µM) | relative viability ([1]; first compound 0.3162 µM) | relative viability ([1]; first compound 1 µM) | relative viability ([2]; first compound 0.03162 µM) | relative viability ([2]; first compound 0.1 µM) | relative viability ([2]; first compound 1 µM) | relative viability ([3]; first compound 0.01 µM) | relative viability ([3]; first compound 0.03162 µM) | relative viability ([3]; first compound 0.1 µM) | relative viability ([3]; first compound 0.3162 µM) | relative viability ([3]; first compound 1 µM) | relative viability ([4]; first compound 0.01 µM) | relative viability ([4]; first compound 0.03162 µM) | relative viability ([4]; first compound 0.1 µM) | relative viability ([4]; first compound 0.3162 µM) | relative viability ([4]; first compound 1 µM) | relative viability ([2]; first compound 0.3162 µM)
ChaGo-K-1 | 0.885 | 0.938 | 0.85 | 0.901 | 0.657 | 0.587 | 0.625 | 0.988 | 1.4 | 0.533 | 0.759 | 0.713 | 0.977 | 0.854 | 0.907 | 0.8 | 0.504 | –
EBC-1 | 0.108 | 0.0915 | 0.104 | 0.11 | 0.36 | 0.335 | 0.36 | 0.382 | 0.33 | 0.432 | 0.239 | 0.203 | 0.112 | 0.104 | 0.1 | 0.116 | 0.124 | 0.335
EKVX | 0.617 | – | 0.745 | 0.703 | 0.446 | – | 0.451 | 0.954 | 0.873 | 1.01 | 0.807 | 0.44 | 0.707 | 0.764 | 0.74 | 0.568 | 0.581 | 0.501
EMC-BAC-2 | 1.06 | 0.862 | 0.832 | 1.03 | 0.46 | 0.474 | 0.544 | 1.17 | 1.05 | 1.12 | 1.06 | 0.436 | 0.898 | 0.972 | 0.887 | 0.745 | 0.329 | 0.454
EPLC-272H | 0.614 | 0.435 | 0.873 | 0.685 | 0.277 | 0.278 | 0.336 | 1.07 | 0.901 | 1.18 | 0.897 | 1.04 | 0.712 | 0.498 | 0.594 | 0.41 | 0.236 | 0.295
H3255 | 0.945 | – | 0.827 | 0.96 | 0.474 | – | 0.452 | 0.411 | 0.483 | 0.442 | 0.428 | 0.227 | 0.772 | 1.03 | 0.811 | 0.865 | 0.481 | 0.48
HARA | 0.858 | 0.634 | 0.945 | 0.559 | 0.41 | – | 0.486 | 1.18 | 1.26 | 1.24 | 1.34 | 0.354 | 0.91 | 0.92 | 0.835 | 0.715 | 0.322 | 0.459
HCC-15 | 0.941 | 1.09 | – | 1.05 | 0.653 | 0.773 | 0.578 | 0.713 | 0.689 | 0.676 | 0.611 | 0.374 | 1.11 | 0.954 | 0.969 | 0.895 | 0.58 | 0.727
HCC-44 | – | – | – | – | 0.443 | 0.5 | 0.646 | 0.966 | 0.982 | 0.96 | 0.833 | 0.383 | – | – | – | – | – | 0.478
HCC-78 | 0.59 | 0.476 | 0.7 | 0.552 | 0.222 | 0.214 | 0.185 | 0.868 | 0.766 | 0.371 | 0.454 | 0.278 | 0.551 | 0.511 | 0.52 | 0.425 | 0.366 | 0.429
